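Method: 48-hour compound exposure of cells in 96-well plates, five concentrations, linear interpolation of endpoints. Definition used: TGI = concentration required for complete inhibition of growth.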
Experiments:
Test in all cases: NCI tumour cell line growth inhibition, 48 h
786-0 renal = test system: 786-0 renal
A498 renal = test system: A498 renal
A549 NSCLC = test system: A549 NSCLC
ACHN renal = test system: ACHN renal
BT-549 breast = test system: BT-549 breast
CAKI-1 renal = test system: CAKI-1 renal
CCRF-CEM leukemia = test system: CCRF-CEM leukemia
COLO 205 colon = test system: COLO 205 colon
DU-145 prostate = test system: DU-145 prostate
EKVX NSCLC = test system: EKVX NSCLC
HCC-2998 colon = test system: HCC-2998 colon
HCT-116 colon = test system: HCT-116 colon
HCT-15 colon = test system: HCT-15 colon
HOP-62 NSCLC = test system: HOP-62 NSCLC
HOP-92 NSCLC = test system: HOP-92 NSCLC
HS 578T breast = test system: HS 578T breast
HT29 colon = test system: HT29 colon
IGROV1 ovarian = test system: IGROV1 ovarian
K-562 leukemia = test system: K-562 leukemia
KM12 colon = test system: KM12 colon
LOX IMVI melanoma = test system: LOX IMVI melanoma
M14 melanoma = test system: M14 melanoma
MALME-3M melanoma = test system: MALME-3M melanoma
MCF7 breast = test system: MCF7 breast
MDA-MB-231 breast = test system: MDA-MB-231 breast
MDA-MB-435 = test system: MDA-MB-435
MDA-N = test system: MDA-N
NCI-H226 lung = test system: NCI-H226 lung
NCI-H23 lung = test system: NCI-H23 lung
NCI-H460 lung = test system: NCI-H460 lung
NCI-H522 lung = test system: NCI-H522 lung
NCI/ADR-RES ovarian = test system: NCI/ADR-RES ovarian
OVCAR-3 ovarian = test system: OVCAR-3 ovarian
OVCAR-4 ovarian = test system: OVCAR-4 ovarian
OVCAR-5 ovarian = test system: OVCAR-5 ovarian
OVCAR-8 ovarian = test system: OVCAR-8 ovarian
PC-3 prostate = test system: PC-3 prostate
RPMI-8226 leukemia = test system: RPMI-8226 leukemia
SF-268 CNS = test system: SF-268 CNS
SF-295 CNS = test system: SF-295 CNS
SK-MEL-2 melanoma = test system: SK-MEL-2 melanoma
SK-MEL-28 melanoma = test system: SK-MEL-28 melanoma
SK-MEL-5 melanoma = test system: SK-MEL-5 melanoma
SK-OV-3 ovarian = test system: SK-OV-3 ovarian
SN12C renal = test system: SN12C renal
SNB-19 CNS = test system: SNB-19 CNS
SNB-75 CNS = test system: SNB-75 CNS
SW-620 colon = test system: SW-620 colon
T-47D breast = test system: T-47D breast
TK-10 renal = test system: TK-10 renal
U251 CNS = test system: U251 CNS
UACC-257 melanoma = test system: UACC-257 melanoma
UACC-62 melanoma = test system: UACC-62 melanoma
UO-31 renal = test system: UO-31 renal
HL-60(TB) leukemia = test system: HL-60(TB) leukemia
MOLT-4 leukemia = test system: MOLT-4 leukemia
RXF 393 renal = test system: RXF 393 renal
SF-539 CNS = test system: SF-539 CNS

C=C(NC(=O)C(=C)NC(=O)c1csc(C2=NC3c4csc(n4)C4NC(=O)c5csc(n5)C(C(C)(O)C(C)O)NC(=O)C5CSC(=N5)/C(=C/C)NC(=O)C(C(C)O)NC(=O)c5csc(n5)C3(CC2)NC(=O)C(C)NC(=O)C(=C)NC(=O)C(=C)NC(=O)C(C(C)C)NC2C=Cc3c(C(C)O)cc(nc3C2O)C(=O)OC4C)n1)C(N)=O (centres undefined)
TGI (786-0 renal): 11.3 µM
TGI (A498 renal): 16.5 µM
TGI (A549 NSCLC): > 48.5 µM
TGI (ACHN renal): > 61.2 µM
TGI (BT-549 breast): 7.88 µM
TGI (CAKI-1 renal): > 87.2 µM
TGI (CCRF-CEM leukemia): 6.8 µM
TGI (COLO 205 colon): > 100 µM
TGI (DU-145 prostate): > 72.4 µM
TGI (EKVX NSCLC): > 100 µM
TGI (HCC-2998 colon): > 58.1 µM
TGI (HCT-116 colon): 2.64 µM
TGI (HCT-15 colon): > 63.4 µM
TGI (HOP-62 NSCLC): > 100 µM
TGI (HOP-92 NSCLC): 40.1 µM
TGI (HS 578T breast): > 100 µM
TGI (HT29 colon): 16 µM
TGI (IGROV1 ovarian): 58.9 µM
TGI (K-562 leukemia): > 48.3 µM
TGI (KM12 colon): > 100 µM
TGI (LOX IMVI melanoma): > 61.3 µM
TGI (M14 melanoma): > 28.5 µM
TGI (MALME-3M melanoma): 0.786 µM
TGI (MCF7 breast): > 26 µM
TGI (MDA-MB-231 breast): > 100 µM
TGI (MDA-MB-435): > 52.8 µM
TGI (MDA-N): > 100 µM
TGI (NCI-H226 lung): 7.24 µM
TGI (NCI-H23 lung): > 62.6 µM
TGI (NCI-H460 lung): 59.7 µM
TGI (NCI-H522 lung): 0.322 µM
TGI (NCI/ADR-RES ovarian): > 100 µM
TGI (OVCAR-3 ovarian): > 100 µM
TGI (OVCAR-4 ovarian): > 83.5 µM
TGI (OVCAR-5 ovarian): 28.2 µM
TGI (OVCAR-8 ovarian): 8.75 µM
TGI (PC-3 prostate): > 100 µM
TGI (RPMI-8226 leukemia): 13.6 µM
TGI (SF-268 CNS): > 100 µM
TGI (SF-295 CNS): > 100 µM
TGI (SK-MEL-2 melanoma): > 38.9 µM
TGI (SK-MEL-28 melanoma): > 62.1 µM
TGI (SK-MEL-5 melanoma): > 100 µM
TGI (SK-OV-3 ovarian): > 63.4 µM
TGI (SN12C renal): > 38 µM
TGI (SNB-19 CNS): 65.4 µM
TGI (SNB-75 CNS): > 100 µM
TGI (SW-620 colon): > 100 µM
TGI (T-47D breast): 25 µM
TGI (TK-10 renal): > 94.8 µM
TGI (U251 CNS): > 40.2 µM
TGI (UACC-257 melanoma): 18.7 µM
TGI (UACC-62 melanoma): 4.15 µM
TGI (UO-31 renal): > 100 µM

O=C1CC(NC(=O)C(F)(F)F)c2c(Br)sc(N3CCC(c4ccccc4)CC3)c21 (centres undefined)
TGI (786-0 renal): > 100 µM
TGI (A498 renal): > 100 µM
TGI (A549 NSCLC): > 100 µM
TGI (ACHN renal): > 100 µM
TGI (BT-549 breast): > 100 µM
TGI (CAKI-1 renal): 43.8 µM
TGI (CCRF-CEM leukemia): > 100 µM
TGI (COLO 205 colon): > 100 µM
TGI (DU-145 prostate): > 100 µM
TGI (EKVX NSCLC): > 100 µM
TGI (HCC-2998 colon): > 100 µM
TGI (HCT-116 colon): > 100 µM
TGI (HCT-15 colon): > 100 µM
TGI (HL-60(TB) leukemia): > 100 µM
TGI (HOP-92 NSCLC): 41.1 µM
TGI (HS 578T breast): 79.6 µM
TGI (HT29 colon): > 100 µM
TGI (IGROV1 ovarian): > 100 µM
TGI (K-562 leukemia): > 100 µM
TGI (KM12 colon): > 100 µM
TGI (LOX IMVI melanoma): > 100 µM
TGI (M14 melanoma): > 100 µM
TGI (MALME-3M melanoma): > 100 µM
TGI (MCF7 breast): > 100 µM
TGI (MDA-MB-231 breast): 39.8 µM
TGI (MDA-MB-435): > 100 µM
TGI (MDA-N): > 100 µM
TGI (MOLT-4 leukemia): > 100 µM
TGI (NCI-H226 lung): 91.5 µM
TGI (NCI-H23 lung): > 100 µM
TGI (NCI-H460 lung): > 100 µM
TGI (NCI-H522 lung): > 100 µM
TGI (NCI/ADR-RES ovarian): > 100 µM
TGI (OVCAR-3 ovarian): 95.8 µM
TGI (OVCAR-4 ovarian): 92.6 µM
TGI (OVCAR-5 ovarian): > 100 µM
TGI (OVCAR-8 ovarian): > 100 µM
TGI (PC-3 prostate): > 100 µM
TGI (RXF 393 renal): 88.3 µM
TGI (SF-268 CNS): > 100 µM
TGI (SF-295 CNS): 28.7 µM
TGI (SF-539 CNS): > 100 µM
TGI (SK-MEL-2 melanoma): > 100 µM
TGI (SK-MEL-5 melanoma): 68.4 µM
TGI (SK-OV-3 ovarian): > 100 µM
TGI (SN12C renal): > 100 µM
TGI (SNB-19 CNS): 78.2 µM
TGI (SNB-75 CNS): > 100 µM
TGI (SW-620 colon): > 100 µM
TGI (T-47D breast): 55.4 µM
TGI (TK-10 renal): 97.7 µM
TGI (U251 CNS): 25.5 µM
TGI (UACC-257 melanoma): 82.4 µM
TGI (UACC-62 melanoma): > 100 µM
TGI (UO-31 renal): > 100 µM
